IC50 and toxicity data for one compound are collected here from patent US20060004055A1, “Derivative of 5-(4-bromophenyl)-1-(2,4-dichlorophenyl)-4-ethyl-N-(piperidine-1-yl)-1H-pyrazole-3-carboxamide, the preparation and therapeutic use thereof” (Sanofi-Aventis, priority 2002, published 2006).

Data set [1] addresses cannabinoid CB1 receptors. Kind of data set: in vitro affinity for cannabinoid CB1 receptors (Rinaldi-Carmona et al., FEBS Letters 1994). Particulars: conditions of Rinaldi-Carmona et al., FEBS Letters, 1994, 350, 240-244. The data set is classed as binding.

cannabinoid CB1 receptors, sequence (P21554 whole entry): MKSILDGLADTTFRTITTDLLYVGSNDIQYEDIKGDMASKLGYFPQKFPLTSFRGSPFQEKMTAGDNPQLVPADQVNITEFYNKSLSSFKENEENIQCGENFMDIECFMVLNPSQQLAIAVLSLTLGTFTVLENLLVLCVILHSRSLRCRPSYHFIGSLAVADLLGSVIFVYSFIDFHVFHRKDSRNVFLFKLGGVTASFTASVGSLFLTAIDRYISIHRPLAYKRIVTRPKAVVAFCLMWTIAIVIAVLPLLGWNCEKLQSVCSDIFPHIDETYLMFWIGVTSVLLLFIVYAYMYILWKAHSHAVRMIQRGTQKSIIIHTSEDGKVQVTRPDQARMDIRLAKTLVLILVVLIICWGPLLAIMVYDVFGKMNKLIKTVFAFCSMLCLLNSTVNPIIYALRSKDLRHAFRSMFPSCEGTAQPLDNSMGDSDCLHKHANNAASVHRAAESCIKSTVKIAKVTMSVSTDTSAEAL

With `CCc1c(C(=O)NN2CCC(O)CC2)nn(-c2ccc(Cl)cc2Cl)c1-c1ccc(Br)cc1` [compound of formula (I), 5-(4-Bromophenyl)-1-(2,4-dichlorophenyl)-4-ethyl-N-(hydroxypiperidin-1-yl)-1H-pyrazole-3-carboxamide], inhibition in data set [1] was half-maximal at 32 nM (IC50). In addition, in the data set “toxicity”, the toxicity entry is recorded as “compatible with its use as a medicinal product”.
